Data taken from patent US9382224B2, “7-acyloxychromen-4-one derivatives and the use thereof as self-tanning substances” (MERCK PATENT GMBH, priority 2011, dated 2016).

Columns and labels:
[1] = tested on: melanocytes and keratinocytes of tissue samples taken from the stomach tissue of a person; assay: Ex vivo study on the promotion of melanogenesis: histological analysis, melanin visualisation; type: cell-based, human; conditions: for activity of the melanocytes / melanin content in basal keratinocytes / melanin content in suprabasal keratinocytes / melanin in basal keratinocytes: treatment for 10 days
Protocol: (§1) The tissue samples having a diameter of 10 mm are taken from the stomach tissue of a person and stored in BEM medium at 37° C. in a moist atmosphere having a CO2 content of 5%. The tissue samples are employed in accordance with the following test plan:
(§2) 30 μl of test solution are placed on a filter paper and immediately laid on the tissue sample.
(§3) The irradiations are carried out daily before treatment of the tissue samples with test solutions. An RMX 3W Vilbert Lourmat instrument is used. The UV dose is 1.04 J/cm2 comprising 6/8% of UVB.
On the first day (D0), 3 untreated tissue samples are halved, and in each case one half is fixed in buffered formalin solution. The respective other halves are frozen at −80° C.
After fixing for 24 hours in buffered formalin solution, the samples are dehydrated in a Leica TP1010 automatic dryer and impregnated with paraffin. After embedding with the aid of a Leica EG1160 station, 5 μm thin cross sections are produced from the samples using a Leica RM 2125 Minot-type microtome.
The cross sections are mounted on Superfrost Plus specimen slides made from silanised glass. The light-microscopy analysis is carried out by means of a Leica Orthoplan microscope with 25-times magnification in order to assess the general morphology or 40-times magnification in order to visualise the melanin.
The melanin visualisation is carried out after impregnation of the paraffinised cross-sections with silver in accordance with Masson in the Fontana variant.

[2] = tested on: tissue samples taken from the stomach tissue of a person; assay: Ex vivo study on the promotion of melanogenesis: chromatometry of tissue samples; type: cell-based, human; conditions: for % L: D10 versus D0
Protocol: as §1, §2, §3
The colour coordinates of the tissue samples are determined by means of a Minolta CM 2600d chromatometer.

[3] = with UV irradiation, after 10 days
[4] = without UV irradiation, after 10 days

Row | SMILES | activity of the melanocytes ([1]; with UV irradiation) | melanin content in basal keratinocytes ([1]; with UV irradiation) | melanin content in suprabasal keratinocytes ([1]; with UV irradiation) | activity of the melanocytes ([1]; without UV irradiation) | melanin content in suprabasal keratinocytes ([1]; without UV irradiation) | melanin in basal keratinocytes ([1]; without UV irradiation) | tanning activity in the ex vivo experiment [2] | activity indicated by chromatometric analysis ([2]; with UV irradiation) | L ([2]; with UV irradiation, D0) | L ([2]; with UV irradiation, D10) | % L ([2]; with UV irradiation) [%] | change in the L parameter (in words) [2, 3] | activity indicated by chromatometric analysis ([2]; without UV irradiation) | L ([2]; without UV irradiation, D0) | L ([2]; without UV irradiation, D10) | % L ([2]; without UV irradiation) [%] | increase in the L parameter [2, 4] [%] | increase of the area of the basal layer occupied by melanin ([1]; without UV irradiation, compared with the untreated control) [%] | light/dark parameter L drops by [2, 3] [%] | decrease in the L parameter [2, 4] [%]
1 | CC(=O)c1cc(O)c2c(=O)cc(C)oc2c1 [5-hydroxy-7-acetyl-2-methylchromen-4-one] | low activity | moderate | low | very low activity | low | moderate | no tanning activity | skin-lightening activity | 63.66 | 64.87 | 1.9 | increase in the L parameter | skin-lightening activity | 62.19 | 63.98 | 2.9 | 2.9 |  |  | 
2 | COc1cc(O)c2c(=O)cc(C)oc2c1 [5-hydroxy-7-methoxy-2-methylchromen-4-one] | very low activity | moderate | low | very low activity | low | moderate |  | skin-lightening activity | 63.63 | 64.60 | 1.5 | increase in the L parameter | skin-lightening activity | 61.50 | 64.64 | 5.1 |  |  |  | 
3 | CCCCCCCCCCCCCCCC(=O)Oc1cc(O)c2c(=O)cc(C)oc2c1 [compound Ia, 5-hydroxy-2-methyl-4-oxo-4H-chromen-7-yl hexadecanoate] | high degree of activity | high | moderate | very high activity | moderate | readily detectable |  | clear pro-pigmenting activity | 64.07 | 61.52 | −4 |  | pro-pigmenting activity | 64.53 | 61.24 | −5.1 |  | 43 | 4.0 | 5.1
